Data published in patent publication US10111420B2 (priority 2011, dated 2018).

Experiment: Sessile advancing contact angle of distilled water containing surfactants
Type: physicochemical
Details: water on oven dry P. radiata
Procedure: The contact angle data is recorded using water because resins, by their nature, can continue to polymerise resulting in changes in viscosity which will change the wetting behaviour of the resin/surfactant mix. […] Water is also present in all amino resins as the carrier of the resin solids so it is important to understand the effect of the surfactant on water because this will have a direct relationship on the wetting performance of the resin. The contact angle shown below is the average of at least 5 measurements. The measurements were taken after 1 second and in some instances after half a second. Where the entry is “n/a” it indicates complete wetting i.e. a contact angle of 0° or very close to 0°.

Question: For `CCCCCCCCCCCCOS(=O)(=O)[O-].[Na+]` [SDS], which “Contact angle @ 1 sec” value (surfactant 0.05%, octanol 0.1%) is on record?
Answer: The value was 31.0 °.

Question: What about the “Contact angle @ 1 sec” value (surfactant 0.1%, octanol 0.1%) of the same compound?
Answer: The value was 9.5 °.

Question: And the “Contact angle @ 1 sec” value (surfactant 0.1%, octanol 0.25%)?
Answer: Its value is 8.99 °.
